The text below walks through data of ChEMBL document CHEMBL1201862, “PubChem BioAssay data set” (2004).

Molecules are shown by their SMILES. Calls of active or inactive are those of the source.

The target in assay [1] is 5-hydroxytryptamine receptor 2A (Mus musculus, UniProt P35363). The assay is classed as functional, cell-based.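 Further: CHO-K1 cells with tagged receptor and beta-arrestin; agonist potency measured as compound-induced activation of the receptor.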
The next assay has as its target Mu-type opioid receptor (Homo sapiens, UniProt P35372). The assay is classed as functional, cell-based.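 Further: U2OS cells with beta-arrestin recruitment to OPRM1 by beta-gal complementation.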
Assay [2] addresses T1, Corticotropin-releasing factor receptor 2/Corticotropin-releasing factor-binding protein (Homo sapiens, UniProt P24387+Q13324).
T1 sequence (Q13324 whole entry): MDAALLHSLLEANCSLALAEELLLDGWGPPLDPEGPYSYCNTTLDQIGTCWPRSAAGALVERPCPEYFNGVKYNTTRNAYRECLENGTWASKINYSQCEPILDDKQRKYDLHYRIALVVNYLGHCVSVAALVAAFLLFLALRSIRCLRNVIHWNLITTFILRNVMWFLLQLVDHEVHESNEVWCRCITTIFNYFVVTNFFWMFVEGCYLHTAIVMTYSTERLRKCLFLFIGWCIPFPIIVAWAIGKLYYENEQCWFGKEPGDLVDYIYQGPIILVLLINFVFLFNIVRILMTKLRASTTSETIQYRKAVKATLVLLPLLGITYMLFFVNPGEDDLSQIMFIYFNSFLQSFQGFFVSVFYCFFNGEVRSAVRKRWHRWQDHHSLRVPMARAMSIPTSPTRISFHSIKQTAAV
T1 sequence (P24387 whole entry): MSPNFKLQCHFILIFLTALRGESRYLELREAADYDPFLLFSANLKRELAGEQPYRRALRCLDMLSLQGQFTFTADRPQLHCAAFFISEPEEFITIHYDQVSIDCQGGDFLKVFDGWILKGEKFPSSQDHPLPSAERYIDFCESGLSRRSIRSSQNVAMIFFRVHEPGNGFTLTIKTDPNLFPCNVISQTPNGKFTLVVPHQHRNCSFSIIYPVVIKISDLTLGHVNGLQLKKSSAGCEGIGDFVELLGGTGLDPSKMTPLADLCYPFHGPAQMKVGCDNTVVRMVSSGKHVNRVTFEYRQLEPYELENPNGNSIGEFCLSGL
In words: activators of CRF receptor 2 with binding protein – uHTS hits, confirmation (AID 602473). The assay is classed as functional. As to conditions: read-out: EC50_Mean.

The target in assay [3] is T1, Corticotropin-releasing factor receptor 2/Corticotropin-releasing factor-binding protein. Nature of the assay: Dose Response confirmation of uHTS hits for small molecule antagonists of the CRF-binding protein and CRF-R2 receptor complex. The assay is classed as functional. As to conditions: read-out: IC50_Mean.
Assay [4] can be described thus: CRF-BP/CRF-R2 complex antagonists, dose response, cell-based, uHTS hits, 384-well (AID 651639). The assay is classed as functional, Homo sapiens. As to conditions: read-out: IC50_Mean.
Assay [5] is described as follows: C. albicans growth with fluconazole, confirmation, fluorescence, retest (AID 2467). The assay is classed as functional, cell-based.
Assay [6] can be described thus: NIH-3T3 fibroblast cytotoxicity, dose response, cytotoxicity control, cell-based, fluorescence, Alamar Blue, secondary assay (AID 2327).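 Further: NIH-3T3 mouse fibroblasts cultured with fluconazole at 8 µg/mL.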 The assay is classed as functional. For orientation: The colour change of resazurin is a common sign of viable cells or microbes.
For assay [7], the target named is T2, Sentrin-specific protease 8 (Homo sapiens, UniProt Q96LD8).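 Further: luminescence read-out of SENP8 inhibition, dose-response confirmation following an ultra-high-throughput screen.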
T2 sequence (Q96LD8 whole entry): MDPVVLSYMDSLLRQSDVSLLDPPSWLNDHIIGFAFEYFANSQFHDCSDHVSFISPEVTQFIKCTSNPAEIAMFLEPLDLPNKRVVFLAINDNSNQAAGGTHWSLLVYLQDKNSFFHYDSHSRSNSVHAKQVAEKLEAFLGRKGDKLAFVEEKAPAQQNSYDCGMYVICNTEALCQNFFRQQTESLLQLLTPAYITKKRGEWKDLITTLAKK
The assay is classed as functional.

Assay [8] concerns the target T3, Sentrin-specific protease 6 (Homo sapiens, UniProt Q9GZR1).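 Further: Luminescence-based dose-response confirmatory assay of SENP6 inhibition, following up an ultra-high-throughput screen.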
T3 sequence (Q9GZR1 whole entry): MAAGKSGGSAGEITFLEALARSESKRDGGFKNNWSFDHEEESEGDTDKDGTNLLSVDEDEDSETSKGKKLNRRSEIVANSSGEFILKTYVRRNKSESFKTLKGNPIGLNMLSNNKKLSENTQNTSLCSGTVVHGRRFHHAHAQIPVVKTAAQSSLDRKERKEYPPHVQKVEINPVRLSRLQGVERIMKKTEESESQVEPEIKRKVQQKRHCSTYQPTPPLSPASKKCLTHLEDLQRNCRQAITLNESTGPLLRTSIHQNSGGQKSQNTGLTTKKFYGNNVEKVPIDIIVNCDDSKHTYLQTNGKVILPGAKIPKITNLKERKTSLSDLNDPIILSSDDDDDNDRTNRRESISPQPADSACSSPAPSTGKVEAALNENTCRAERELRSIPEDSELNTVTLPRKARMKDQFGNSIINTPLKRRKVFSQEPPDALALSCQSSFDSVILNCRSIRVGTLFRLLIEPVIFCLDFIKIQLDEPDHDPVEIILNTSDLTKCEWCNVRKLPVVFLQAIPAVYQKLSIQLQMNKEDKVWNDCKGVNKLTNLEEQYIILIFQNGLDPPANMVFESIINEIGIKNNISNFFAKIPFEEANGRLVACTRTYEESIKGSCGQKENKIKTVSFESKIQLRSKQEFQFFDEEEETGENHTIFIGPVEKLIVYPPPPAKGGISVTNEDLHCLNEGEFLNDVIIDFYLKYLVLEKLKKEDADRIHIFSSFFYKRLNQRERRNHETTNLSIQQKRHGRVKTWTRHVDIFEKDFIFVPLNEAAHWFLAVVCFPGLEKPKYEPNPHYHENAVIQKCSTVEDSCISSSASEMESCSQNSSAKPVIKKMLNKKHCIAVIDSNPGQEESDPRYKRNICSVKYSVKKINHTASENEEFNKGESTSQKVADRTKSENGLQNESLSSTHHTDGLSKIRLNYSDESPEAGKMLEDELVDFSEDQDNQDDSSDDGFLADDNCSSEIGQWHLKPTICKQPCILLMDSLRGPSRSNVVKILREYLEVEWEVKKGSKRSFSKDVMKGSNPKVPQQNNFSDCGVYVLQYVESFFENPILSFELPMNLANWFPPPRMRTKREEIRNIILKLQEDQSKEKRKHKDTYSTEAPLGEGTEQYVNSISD
The assay is classed as functional.

Another assay has as its target T4, Caspase-3 (Homo sapiens, UniProt P42574).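 Further: Dose-response selectivity test against caspase-3 for candidate inhibitors of sentrin-specific proteases (SENPs).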
T4 sequence (P42574 whole entry): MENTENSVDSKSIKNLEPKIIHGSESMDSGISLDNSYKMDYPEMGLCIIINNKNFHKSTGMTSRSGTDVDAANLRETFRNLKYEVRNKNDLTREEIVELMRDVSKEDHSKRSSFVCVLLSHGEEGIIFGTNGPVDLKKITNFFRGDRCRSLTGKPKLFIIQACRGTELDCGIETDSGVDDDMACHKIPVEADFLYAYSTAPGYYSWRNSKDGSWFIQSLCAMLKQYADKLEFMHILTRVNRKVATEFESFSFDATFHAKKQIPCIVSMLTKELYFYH
The assay is classed as functional.

Assay [9] concerns the target T5, Sentrin-specific protease 7 (Homo sapiens, UniProt Q9BQF6).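 Further: Luminescence-based dose-response confirmation of ultra-high-throughput screening hits, measuring inhibition of SENP7.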
T5 sequence (Q9BQF6 whole entry): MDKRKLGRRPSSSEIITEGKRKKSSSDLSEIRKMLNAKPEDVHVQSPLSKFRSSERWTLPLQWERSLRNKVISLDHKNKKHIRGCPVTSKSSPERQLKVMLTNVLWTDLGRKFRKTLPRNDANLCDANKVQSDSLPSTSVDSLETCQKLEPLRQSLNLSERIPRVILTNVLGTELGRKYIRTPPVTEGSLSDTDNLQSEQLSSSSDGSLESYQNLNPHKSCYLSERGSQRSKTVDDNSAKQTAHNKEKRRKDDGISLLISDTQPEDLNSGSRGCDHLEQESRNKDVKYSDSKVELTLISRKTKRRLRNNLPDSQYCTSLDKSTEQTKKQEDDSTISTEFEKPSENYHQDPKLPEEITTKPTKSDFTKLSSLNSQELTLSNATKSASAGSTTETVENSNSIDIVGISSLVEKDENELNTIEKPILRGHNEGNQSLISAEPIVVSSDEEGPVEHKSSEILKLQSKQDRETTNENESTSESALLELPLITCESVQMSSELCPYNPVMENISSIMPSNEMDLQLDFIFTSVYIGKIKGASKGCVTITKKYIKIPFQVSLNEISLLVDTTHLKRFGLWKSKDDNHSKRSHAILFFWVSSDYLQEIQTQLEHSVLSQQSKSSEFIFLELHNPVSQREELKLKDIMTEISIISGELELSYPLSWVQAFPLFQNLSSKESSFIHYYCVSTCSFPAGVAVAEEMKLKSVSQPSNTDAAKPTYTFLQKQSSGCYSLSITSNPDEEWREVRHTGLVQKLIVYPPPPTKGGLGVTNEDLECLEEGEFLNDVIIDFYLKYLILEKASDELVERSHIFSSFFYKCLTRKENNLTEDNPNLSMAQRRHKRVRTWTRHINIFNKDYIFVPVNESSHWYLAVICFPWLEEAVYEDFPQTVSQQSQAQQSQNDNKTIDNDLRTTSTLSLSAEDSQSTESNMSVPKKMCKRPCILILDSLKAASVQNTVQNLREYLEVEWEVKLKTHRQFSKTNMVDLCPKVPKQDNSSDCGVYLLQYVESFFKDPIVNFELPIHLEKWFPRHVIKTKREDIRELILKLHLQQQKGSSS
The assay is classed as functional.

In assay [10] the target is T6, Low molecular weight phosphotyrosine protein phosphatase (Homo sapiens, UniProt P24666).
T6 sequence (P24666 whole entry): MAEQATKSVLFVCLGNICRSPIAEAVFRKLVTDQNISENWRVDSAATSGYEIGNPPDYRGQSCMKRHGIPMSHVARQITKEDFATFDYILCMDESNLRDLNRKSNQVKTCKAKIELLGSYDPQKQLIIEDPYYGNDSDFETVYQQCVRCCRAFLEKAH
The assay is classed as functional. The note with it: read-out: IC50_Mean.

The target in assay [11] is T6, Low molecular weight phosphotyrosine protein phosphatase. The assay is classed as functional. As to conditions: read-out: IC50_Mean. The source holds these as a separate data set.
Assay [12] concerns the target T7, Methionyl-tRNA synthetase, putative (Trypanosoma brucei brucei, UniProt Q38C91).
T7 sequence (Q38C91 whole entry): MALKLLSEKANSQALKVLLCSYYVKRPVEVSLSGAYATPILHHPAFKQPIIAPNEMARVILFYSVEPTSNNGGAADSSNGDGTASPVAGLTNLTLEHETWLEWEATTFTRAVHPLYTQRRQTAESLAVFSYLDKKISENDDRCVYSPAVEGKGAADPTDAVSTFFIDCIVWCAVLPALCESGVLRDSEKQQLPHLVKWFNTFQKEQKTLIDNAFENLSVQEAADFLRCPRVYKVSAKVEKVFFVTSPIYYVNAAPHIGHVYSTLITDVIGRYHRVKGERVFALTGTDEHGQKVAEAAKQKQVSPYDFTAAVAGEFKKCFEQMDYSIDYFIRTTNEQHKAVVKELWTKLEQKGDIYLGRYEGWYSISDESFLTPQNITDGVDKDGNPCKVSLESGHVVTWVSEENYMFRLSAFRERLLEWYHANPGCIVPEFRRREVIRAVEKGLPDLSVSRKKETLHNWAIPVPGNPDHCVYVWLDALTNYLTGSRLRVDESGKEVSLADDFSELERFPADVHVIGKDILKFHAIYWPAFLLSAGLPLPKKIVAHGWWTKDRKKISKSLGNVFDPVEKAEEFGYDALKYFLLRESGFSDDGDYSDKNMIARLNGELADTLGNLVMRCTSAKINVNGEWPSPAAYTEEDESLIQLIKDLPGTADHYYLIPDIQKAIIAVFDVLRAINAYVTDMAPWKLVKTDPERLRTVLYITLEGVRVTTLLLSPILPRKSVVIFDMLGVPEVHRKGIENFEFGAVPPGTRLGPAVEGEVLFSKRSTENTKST
The assay is classed as functional, Trypanosoma brucei brucei strain 927/4 GUTat10.1.

Assay [13] can be described thus: Counterscreen for inhibitors of Trypanosoma brucei methionyl tRNA synthetase (MetRS): Luminescence-based cell-based high throughput dose response assay to identify compounds that are cytotoxic to Jurkat human T lymphocyte cells. The assay is classed as functional.
For assay [14], the target named is T7, Methionyl-tRNA synthetase, putative. The assay is classed as functional, Trypanosoma brucei brucei strain 927/4 GUTat10.1. The source holds these as a separate data set.

Chain of Mu-type opioid receptor (P35372 whole entry): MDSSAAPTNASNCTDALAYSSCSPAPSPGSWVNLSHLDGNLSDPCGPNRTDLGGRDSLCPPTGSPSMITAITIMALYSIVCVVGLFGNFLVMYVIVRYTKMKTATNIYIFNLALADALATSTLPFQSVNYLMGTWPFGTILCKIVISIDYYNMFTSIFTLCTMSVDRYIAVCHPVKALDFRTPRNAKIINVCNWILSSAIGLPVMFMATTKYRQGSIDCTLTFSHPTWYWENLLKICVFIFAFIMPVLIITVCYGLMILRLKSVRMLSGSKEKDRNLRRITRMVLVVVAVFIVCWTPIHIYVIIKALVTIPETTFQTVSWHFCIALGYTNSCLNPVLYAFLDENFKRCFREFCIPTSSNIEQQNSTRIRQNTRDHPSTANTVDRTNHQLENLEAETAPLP
Chain of 5-hydroxytryptamine receptor 2A (P35363 whole entry): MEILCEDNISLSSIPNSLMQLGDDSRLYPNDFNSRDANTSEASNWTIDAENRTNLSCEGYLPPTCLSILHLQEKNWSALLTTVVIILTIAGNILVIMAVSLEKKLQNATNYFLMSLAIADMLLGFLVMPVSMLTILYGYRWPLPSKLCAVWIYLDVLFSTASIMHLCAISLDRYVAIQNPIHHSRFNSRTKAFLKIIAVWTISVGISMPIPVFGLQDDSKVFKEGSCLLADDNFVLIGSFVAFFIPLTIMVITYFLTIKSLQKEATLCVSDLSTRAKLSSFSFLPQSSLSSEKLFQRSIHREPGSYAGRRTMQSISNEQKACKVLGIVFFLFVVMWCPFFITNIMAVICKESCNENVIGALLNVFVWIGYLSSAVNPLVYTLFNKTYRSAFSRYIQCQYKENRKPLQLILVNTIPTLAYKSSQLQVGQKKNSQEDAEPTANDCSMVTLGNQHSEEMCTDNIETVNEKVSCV

With `Fc1cccc(CN2CCN(c3ncccn3)CC2)c1`, the EC50 is 277 nM (active) in [1] and 92.5 µM (inactive) on Mu-type opioid receptor.
On to `COc1ccc(CN2CCN(C(=O)c3ccco3)CC2)cc1OC`, for which the figures for the EC50 (in assay [1]; at Mu-type opioid receptor) were 2800 nM (active) and 92.5 µM (inactive), respectively.
As for `O=C1CC(c2ccccc2)SC(N(c2ccccc2)c2ccccc2)=N1` (centres undefined), the EC50 in assay [2] is > 53 µM (inactive). In addition, the IC50 was 7.25 µM (active) in assay [3] and > 20 µM (inactive) in assay [4].
Regarding `Cc1ccc(NC(=O)COC(=O)CCc2c[nH]c3ccccc23)c(C)c1`, the EC50 in assay [2] is > 53 µM (inactive). Also, the IC50 is 4.32 µM (active) in assay [3] and 8.75 µM (active) in assay [4].
`Cc1ccc(SCC(=O)Nc2cc([N+](=O)[O-])ccc2O)cc1`: the EC50 in assay [2] was 23.4 µM (active); in assay [5] it was 46 nM (active); in [6] it was > 150 µM (inconclusive). Moreover, the IC50 in [3] was 2.34 µM (active); in [7], 31.3 µM (active); in assay [8] it was 25.6 µM (active); at Caspase-3, 17.9 µM (active); in [4], 13.5 µM (active); in assay [9] it was 29.3 µM (active).
Take `COc1ccc(Nc2nc(-c3ccc4c(c3)NC(=O)CO4)cs2)cc1`: the IC50 in [10] is 13.1 µM (active); in [11] it was 54.9 µM (inactive).
Turning to `O=C(Cc1cccc(Cl)c1)Nc1ccc(Br)cc1`, the results for the IC50 in [12], in assay [13] and in [14] were 7.49 µM (active), 83.3 µM (inactive) and 11.1 µM (inactive), respectively.
`Cc1nccc(O)c1Cc1c(Cl)cccc1Cl`: the IC50 was 11.5 µM (active) in [10] and 2.34 µM (active) in assay [11].
As to `COc1ccc(NC(=O)CC2C(=O)N(C)C(=S)N2CCc2ccc(F)cc2)cc1` (centres undefined), the IC50 in assay [12] was 6.36 µM (active); in assay [13], 63.3 µM (inactive); in [14] it was 17.4 µM (inactive).
